Test results: the supplement of paper PMC10307832

Experiments:
Test in all cases: relative viability (nuclei count vs DMSO), 5 days (fraction); higher = more cells survive
[1] = compound: Cn1cc(-c2cnn3c(N)c(Br)c([C@@H]4CCCNC4)nc23)cn1 + O=C(CCCCCCC(=O)Nc1ccccc1)NO [Vorinostat] (partner 1 µM)
How it was run: (§1)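 After 5 days of treatment, lung cancer cells in 1536-well plates were fixed and stained in a single step (final 0.05% Triton X-100, 1% formaldehyde, 1 ug/ml Hoechst) and their nuclei counted on 4× images. Treatment had been applied by pin tool the day after seeding as one drug alone or as a fixed anchor-drug dose with five library-drug doses (not always all listed) in √10 steps. Relative viability is the nuclei count of treated wells divided by that of vehicle wells, and values are medians of duplicate plates.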

[2] = compound: Cn1cc(-c2cnn3c(N)c(Br)c([C@@H]4CCCNC4)nc23)cn1 + C[C@]1(O)C[C@@H](c2nc(-c3ccc4ccc(-c5ccccc5)nc4c3)c3c(N)nccn32)C1 [Linsitinib] (partner 1 µM)
How it was run: as §1

[3] = compound: Cn1cc(-c2cnn3c(N)c(Br)c([C@@H]4CCCNC4)nc23)cn1 + Nc1nc2[nH]cc(CCc3ccc(C(=O)N[C@@H](CCC(=O)O)C(=O)O)cc3)c2c(=O)[nH]1 [Pemetrexed] (partner 0.2 µM)
How it was run: as §1

[4] = compound: Cn1cc(-c2cnn3c(N)c(Br)c([C@@H]4CCCNC4)nc23)cn1 + O=C(c1cc(Cc2n[nH]c(=O)c3ccccc23)ccc1F)N1CCN(C(=O)C2CC2)CC1 [Olaparib] (partner 8 µM)
How it was run: as §1

Cell Line	relative viability ([1]; first compound 0.05 µM)	relative viability ([1]; first compound 0.1581 µM)	relative viability ([1]; first compound 0.5 µM)	relative viability ([1]; first compound 1.581 µM)	relative viability ([1]; first compound 5 µM)	relative viability ([2]; first compound 0.05 µM)	relative viability ([2]; first compound 0.1581 µM)	relative viability ([2]; first compound 0.5 µM)	relative viability ([2]; first compound 1.581 µM)	relative viability ([2]; first compound 5 µM)	relative viability ([3]; first compound 0.05 µM)	relative viability ([3]; first compound 0.1581 µM)	relative viability ([3]; first compound 0.5 µM)	relative viability ([3]; first compound 1.581 µM)	relative viability ([3]; first compound 5 µM)	relative viability ([4]; first compound 0.05 µM)	relative viability ([4]; first compound 0.1581 µM)	relative viability ([4]; first compound 0.5 µM)	relative viability ([4]; first compound 1.581 µM)	relative viability ([4]; first compound 5 µM)
201T	0.938	1.05	0.996	0.897	0.549	1.08	1.05	1.12	0.97	0.936	0.362	0.327	0.315	0.264	0.294	0.888	0.836	0.803	0.743	0.719
A-427	0.817	0.915	0.843	0.816	0.406	1.12	1.15	1.06	1.06	1	0.938	0.99	1.03	0.837	0.46	0.819	0.761	0.742	0.704	0.561
ABC-1		0.955	1.04	1.02	0.356	0.801	1.01	0.781	0.716	0.288							1.1	1.17	0.783	0.456
BEN	0.659	0.531	0.558	0.644	0.508	1.04	0.977	0.918	0.686	0.738	0.763	0.825	0.719	0.708	0.616	1.14	1.12	1.17	1.01	0.905
CAL-12T	0.848	0.775	0.664	0.56	0.228	0.786	0.929	0.809	0.616	0.262	1.45	0.778	0.892	0.623	0.393	0.835	0.752	0.824	0.398	0.268
COR-L23	0.387	0.273	0.24	0.187	0.117	0.835	1.16	1.05	0.688	0.363	0.196	0.178	0.178	0.186	0.139	0.38	0.302	0.3	0.249	0.168
COR-L 105	0.921	0.723	0.756	0.526	0.616	0.898	0.719	0.89	0.878	0.645	0.939	0.921	1.08	0.92	0.82	0.467	0.512	0.752	0.64	0.519
Calu-6						0.898	1.1	0.945	0.52	0.176						0.604	0.521	0.481	0.251	0.168
ChaGo-K-1	0.736	0.785	0.779	0.687	0.753						0.259	0.248	0.273	0.28	0.247	0.407	0.511	0.419	0.428	0.463
EBC-1						0.937	1.09	0.933	0.884	0.799						0.846	0.854	0.726	0.75	0.616
EKVX	0.736	0.723	0.712	0.638	0.691	1.02	1.06	0.946	0.68	0.874	0.497	0.293	0.307	0.241	0.206	0.761	0.958	0.872	0.767	0.707
EMC-BAC-2	0.275	0.351	0.35	0.46	0.23	0.834	0.904	0.849	0.663	0.836	0.478	0.386	0.399	0.433	0.462	0.492	0.521	0.47	0.383	0.475
EPLC-272H	0.571	0.275	0.239	0.266	0.15	1.26	1.18	1.24	1.25	1.12	0.268	0.186	0.139	0.106	0.098	0.709	0.683	0.294	0.279	0.215
H3255	0.738	0.872	0.914	0.746	0.411	0.989	1.05	0.929	0.769	0.684	0.537	0.536	0.56	0.483	0.461	0.567	0.615	0.604	0.509	0.39
HARA	0.62	0.511	0.511	0.433	0.556	1.11	1.03	1.23	0.761	0.402	0.228	0.213	0.223	0.141	0.141	0.758	0.856	0.784	0.442	0.229
HCC-15	0.922	1	0.9	0.804	0.705	0.98	0.997	0.824	0.838	0.829	0.206	0.232	0.227	0.226	0.207	0.832	0.797	0.837	0.867	0.973

Cell Line	relative viability ([1]; first compound 0.05 µM)	relative viability ([1]; first compound 0.1581 µM)	relative viability ([1]; first compound 0.5 µM)	relative viability ([1]; first compound 1.581 µM)	relative viability ([1]; first compound 5 µM)	relative viability ([2]; first compound 0.05 µM)	relative viability ([2]; first compound 0.1581 µM)	relative viability ([2]; first compound 0.5 µM)	relative viability ([2]; first compound 1.581 µM)	relative viability ([2]; first compound 5 µM)	relative viability ([3]; first compound 0.05 µM)	relative viability ([3]; first compound 0.1581 µM)	relative viability ([3]; first compound 0.5 µM)	relative viability ([3]; first compound 1.581 µM)	relative viability ([3]; first compound 5 µM)	relative viability ([4]; first compound 0.05 µM)	relative viability ([4]; first compound 0.1581 µM)	relative viability ([4]; first compound 0.5 µM)	relative viability ([4]; first compound 1.581 µM)	relative viability ([4]; first compound 5 µM)
HCC-44	1.08	1.13	1.22	1.08	1.12	0.685	0.872	0.821	0.65	0.631	0.608	0.586	0.674	0.321	0.369	1.01	0.975	1	0.91	1.01
HCC-78	0.431	0.609	0.478	0.41	0.416	0.507	0.519	0.524	0.604	0.385	0.912	0.842	0.869	0.869	0.743	0.826	0.874	0.947	0.878	0.465
HCC-366	0.333	0.402	0.337	0.301	0.211	0.71	0.739	0.483	0.521	0.18	0.166	0.108	0.128	0.0814	0.0667	0.392	0.372	0.296	0.229	0.137
HCC-827	0.741	0.929	1.02	0.917	0.797	0.934	0.958	0.947	1.05	0.953	0.269	0.202	0.249	0.228	0.187	0.707	0.622	0.766	0.628	0.339
HOP-62	0.698	0.775	0.645	0.386	0.209	1.17	1.08	0.693	0.873	0.956	0.309	0.252	0.307	0.22	0.203	0.321	0.262	0.208	0.241	0.199
IA-LM	1.11	1.12	1.11	0.672	0.64	0.666	0.867	0.653	0.544	0.37						0.964	0.932	0.902	0.643	0.358
NCI-H727	1.04	1.17	1.33	1.15	1.13	0.189	0.261	0.235	0.289	0.236						0.754	0.873	0.68	0.646	0.559
NCI-H1299						1.02	1.04	0.959	0.833	0.626						0.981	0.968	1	0.738	0.472
NCI-H1563						1.13	1.27	1.26	1.17	0.848	0.754	0.647	0.782	0.753	0.532					
NCI-H1648	0.449	0.296	0.313	0.327	0.463						0.686	0.673	0.68	0.715	0.668	0.64	0.829	1.1	1.08	0.583
NCI-H1650	0.594	0.524	0.471	0.595	0.336						0.368	0.288	0.292	0.239	0.224	0.625	0.82	0.851	0.616	0.444
NCI-H1703						0.72	0.586	0.539	0.336	0.119						0.416	0.364	0.364	0.233	0.123
NCI-H1792						0.709	0.531	0.347	0.327	0.274	0.847	1.19	0.795		0.55	0.637	0.368	0.378		0.34
NCI-H2170	0.826	0.882	0.659	0.796	0.989						0.268	0.258	0.26	0.256	0.223	0.605	0.588	0.649	0.523	0.555
NCI-H2342	0.636	0.8	0.824	0.68	0.712						0.867	0.846	0.762	0.788	0.778	0.467	0.585	0.448	0.463	0.438
